In US10336697B2, “Spiro[cyclobutane-1,3′-indolin]-2′-one derivatives as bromodomain inhibitors” (Orion Corporation, priority 2015, dated 2019) one finds IC50 data, which are given here for 22 compounds.

This assay concerns the target Bet BRD4 full length bromo-domain protein (Homo sapiens, UniProt O60885). The experiment in a line: Bet bromodomain TR-FRET assay (displacement of acetyl histone peptide). The format is binding. The settings on record: Bet BRD4 full length bromodomain protein, 300 nM acetyl histone peptide substrate, read-out: IC50.

In the case of `CC(c1ccccc1)c1cc(NS(=O)(=O)c2ccc(F)cc2F)cc2c1NC(=O)C21CCC1` (stereo not shown) [Compound 126, 2,4-Difluoro-N-(2′-oxo-7′-(1-phenylethyl)spiro[cyclobutane-1,3′-indolin]-5′-yl)benzenesulfonamide], the IC50 was 600 to 1000 nM.

With `COc1ccc(F)cc1S(=O)(=O)Nc1cc(OC2CCN(C)CC2)c2c(c1)C1(CCC1)C(=O)N2` [Compound 129, 5-Fluoro-2-methoxy-N-(7′-((1-methylpiperidin-4-yl)oxy)-2′-oxospiro[cyclobutane-1,3′-indolin]-5′-yl)benzenesulfonamide], the IC50 is less than 600 nM.

As to `CN1CCC(Oc2cc(NS(=O)(=O)c3ccc(Cl)cc3F)cc3c2NC(=O)C32CCC2)CC1` [Compound 130, 4-Chloro-2-fluoro-N-(7′-((1-methylpiperidin-4-yl)oxy)-2′-oxospiro[cyclobutane-1,3′-indolin]-5′-yl)benzenesulfonamide], the IC50 is less than 600 nM.

Consider `CN1CCCC(Oc2cc(NS(=O)(=O)c3ccc(Cl)cc3F)cc3c2NC(=O)C32CCC2)C1` (stereo not shown) [Compound 131, 4-Chloro-2-fluoro-N-(7′-((1-methylpiperidin-3-yl)oxy)-2′-oxospiro[cyclobutane-1,3′-indolin]-5′-yl)benzenesulfonamide], for which the IC50 was 600 to 1000 nM.

As for `CN1CCC(Oc2cc(NS(=O)(=O)c3ccc(F)cc3Br)cc3c2NC(=O)C32CCC2)CC1` [Compound 132, 2-Bromo-4-fluoro-N-(7′-((1-methylpiperidin-4-yl)oxy)-2′-oxospiro[cyclobutane-1,3′-indolin]-5′-yl)benzenesulfonamide], the IC50 was less than 600 nM.

As to `CN1CCC(Oc2cc(NS(=O)(=O)c3ccccc3Cl)cc3c2NC(=O)C32CCC2)CC1` [Compound 133, 2-Chloro-N-(7′-((1-methylpiperidin-4-yl)oxy)-2′-oxospiro[cyclobutane-1,3′-indolin]-5′-yl)benzenesulfonamide], the IC50 was less than 600 nM.

`CN1CCC(Oc2cc(NS(=O)(=O)c3ccc(F)cc3Cl)cc3c2NC(=O)C32CCC2)CC1` [Compound 134, 2-Chloro-4-fluoro-N-(7′-((1-methylpiperidin-4-yl)oxy)-2′-oxospiro[cyclobutane-1,3′-indolin]-5′-yl)benzenesulfonamide]: the IC50 is less than 600 nM.

As to `CCN1CCC(Oc2cc(NS(=O)(=O)c3ccccc3OC)cc3c2NC(=O)C32CCC2)CC1` [Compound 135, N-(7′-((1-ethylpiperidin-4-yl)oxy)-2′-oxospiro[cyclobutane-1,3′-indolin]-5′-yl)-2-methoxybenzenesulfonamide], the IC50 was less than 600 nM.

For `COc1ccccc1S(=O)(=O)Nc1cc(OC2CCN(C(C)C)CC2)c2c(c1)C1(CCC1)C(=O)N2` [Compound 136, N-(7′-((1-isopropylpiperidin-4-yl)oxy)-2′-oxospiro[cyclobutane-1,3′-indolin]-5′-yl)-2-methoxybenzenesulfonamide], the IC50 was less than 600 nM.

Turning to `COc1ccccc1S(=O)(=O)Nc1cc(OC2CCN(C3CC3)CC2)c2c(c1)C1(CCC1)C(=O)N2` [Compound 137, N-(7′-((1-cyclopropylpiperidin-4-yl)oxy)-2′-oxospiro[cyclobutane-1,3′-indolin]-5′-yl)-2-methoxybenzenesulfonamide], the IC50 was less than 600 nM.

`CN1CCC(Oc2cc(NS(=O)(=O)c3ccc(Cl)cc3F)cc3c2NC(=O)C32CCC2)C1` (stereo not shown) [Compound 138, 4-Chloro-2-fluoro-N-(7′-((1-methylpyrrolidin-3-yl)oxy)-2′-oxospiro[cyclobutane-1,3′-indolin]-5′-yl)benzenesulfonamide]: the IC50 is less than 600 nM.

Consider `COc1ccccc1S(=O)(=O)Nc1cc(OC[C@@H]2CCCN2C)c2c(c1)C1(CCC1)C(=O)N2` [Compound 139, (S)-2-methoxy-N-(7′-((1-methylpyrrolidin-2-yl)methoxy)-2′-oxospiro[cyclobutane-1,3′-indolin]-5′-yl)benzenesulfonamide], for which the IC50 is less than 600 nM.

In the case of `COc1ccccc1S(=O)(=O)Nc1cc(OC2CCCN(C)CC2)c2c(c1)C1(CCC1)C(=O)N2` (stereo not shown) [Compound 140, 2-Methoxy-N-(7′-((1-methylazepan-4-yl)oxy)-2′-oxospiro[cyclobutane-1,3′-indolin]-5′-yl)benzenesulfonamide], the IC50 is less than 600 nM.

For `COc1ccccc1S(=O)(=O)Nc1cc(OC2CCOCC2)c2c(c1)C1(CCC1)C(=O)N2` [Compound 141, 2-Methoxy-N-(2′-oxo-7′-((tetrahydro-2H-pyran-4-yl)oxy)spiro[cyclobutane-1,3′-indolin]-5′-yl)benzenesulfonamide], the 50% inhibitory concentration (IC50) was less than 600 nM.

For `O=C1Nc2c(OC3CCOCC3)cc(NS(=O)(=O)c3ccc(Cl)cc3F)cc2C12CCC2` [Compound 142, 4-Chloro-2-fluoro-N-(2′-oxo-7′-((tetrahydro-2H-pyran-4-yl)oxy)spiro[cyclobutane-1,3′-indolin]-5′-yl)benzenesulfonamide], the IC50 was less than 600 nM.

With `COc1ccccc1S(=O)(=O)Nc1cc(OC2CCS(=O)(=O)CC2)c2c(c1)C1(CCC1)C(=O)N2` [Compound 143, N-(7′-((1,1-dioxidotetrahydro-2H-thiopyran-4-yl)oxy)-2′-oxospiro[cyclobutane-1,3′-indolin]-5′-yl)-2-methoxybenzenesulfonamide], the IC50 was less than 600 nM.

Regarding `O=C1Nc2c(OC3CCS(=O)(=O)CC3)cc(NS(=O)(=O)c3ccc(Cl)cc3F)cc2C12CCC2` [Compound 144, 4-Chloro-N-(7′-((1,1-dioxidotetrahydro-2H-thiopyran-4-yl)oxy)-2′-oxospiro[cyclobutane-1,3′-indolin]-5′-yl)-2-fluorobenzenesulfonamide], the IC50 is less than 600 nM.

Turning to `COc1ccccc1S(=O)(=O)Nc1cc(Oc2ccc(N)nc2)c2c(c1)C1(CCC1)C(=O)N2` [Compound 145, N-(7′-((6-aminopyridin-3-yl)oxy)-2′-oxospiro[cyclobutane-1,3′-indolin]-5′-yl)-2-methoxybenzenesulfonamide], the IC50 was less than 600 nM.

As for `COc1ccccc1S(=O)(=O)Nc1cc(OCC2CCN(C)CC2)c2c(c1)C1(CCC1)C(=O)N2` [Compound 146, 2-Methoxy-N-(7′-((1-methylpiperidin-4-yl)methoxy)-2′-oxospiro[cyclobutane-1,3′-indolin]-5′-yl)benzenesulfonamide], the IC50 was less than 600 nM.

With `O=C1Nc2c(OCc3ccc(F)cn3)cc(NS(=O)(=O)c3ccc(Cl)cc3F)cc2C12CCC2` [Compound 147, 4-Chloro-2-fluoro-N-(7′-((5-fluoropyridin-2-yl)methoxy)-2′-oxospiro[cyclobutane-1,3′-indolin]-5′-yl)benzenesulfonamide], the IC50 is less than 600 nM.

For the compound `COc1ccccc1S(=O)(=O)Nc1cc(OCc2ccc(F)cn2)c2c(c1)C1(CCC1)C(=O)N2` [Compound 148, N-(7′-((5-fluoropyridin-2-yl)methoxy)-2′-oxospiro[cyclobutane-1,3′-indolin]-5′-yl)-2-methoxybenzenesulfonamide], the IC50 was less than 600 nM.

As for `COc1ccccc1S(=O)(=O)Nc1cc(OCc2cncc(F)c2)c2c(c1)C1(CCC1)C(=O)N2` [Compound 149, N-(7′-((5-fluoropyridin-3-yl)methoxy)-2′-oxospiro[cyclobutane-1,3′-indolin]-5′-yl)-2-methoxybenzenesulfonamide], the IC50 is less than 600 nM.
